From article PMC6686156, “Discovery of Sustainable Drugs for Neglected Tropical Diseases: Cashew Nut Shell Liquid (CNSL)‐Based Hybrids Target Mitochondrial Function and ATP Production in Trypanosoma brucei” (Chemmedchem, 2019)

Key:
T. b. brucei ISMR1 = assay: In vitro drug susceptibility assay (resazurin), dyskinetoplastic ISMR1 strain; format: cell-based, Trypanosoma brucei brucei; details: isometamidium-resistant line
Experimental: Organisms and culture media: Only bloodstream trypomastigotes of T. b. brucei were used throughout this study. […] Parasites were cultured in vented flasks at 37 °C and 5 % CO2 atmosphere and they were passaged every 3 days. Bloodstream forms of T. congolense savannah‐type strain IL3000 were cultured in basal MEM medium, supplemented by 10 % fresh goat serum, 14 μL of β‐mercaptoethanol, 800 μL of 200 mM glutamine solution, and 10 mL of penicillin/streptomycin solution per liter of medium (pH 7.3).48 T. congolense were cultured in six‐well plates at 34 °C and 5 % CO2.
In brief, the assays were performed in 96‐well plates with 2×10^5 cells per well for T. b. brucei or 5×10^5 cells per well for T. congolense, in their respective culture media. First, 200 μL of test compounds’ solutions (400 μM, in T. brucei or T. congolense medium as appropriate) was added to the first well of each 12‐well row, from which doubling dilutions were conducted over one row per test compound. […] Fluorescence was detected using a FLUOstar Optima (BMG Labtech, Durham, NC, USA) at wavelength of 540 nm (excitation), 590 nm (emission). EC50 values were calculated by nonlinear regression using an equation for a sigmoidal dose–response curve with variable slope using Prism 5.0 (GraphPad Software Inc., San Diego, CA, USA).

[1] = tested on: T. b. brucei 427WT bloodstream trypomastigotes; assay: ATP assay on T. b. brucei (luciferin-luciferase); format: cell-based, Trypanosoma brucei brucei; details: approximately 0.5×EC50; after 4–6 h
Experimental: (§1) ATP assay on T. b. brucei and HFF cells: Changes in cellular ATP levels due to the exposure of trypanosomes to the test compounds (0.5×EC50) were monitored using the Molecular Probes ATP Determination Kit (A22066, Invitrogen Detection Technologies), based on the luciferin–luciferase bioluminescent enzymatic reaction. Bloodstream trypomastigote cultures of T. brucei s427WT were incubated with and without test compound, and, at each predetermined incubation time, 10^7 cells of each sample were transferred into a microfuge tube and centrifuged at 2000×g for 10 min at 4 °C. The pellet was washed twice with 1 mL of 50 mM Tris⋅HCl (pH 7.4) containing 0.1 mM DTT, and then resuspended in 200 μL of the same buffer. The cells were lysed by sonication on ice (twice for 10 s separated by 30 s), using a Soniprep 150 (MSE) at 8 μm amplitude. The samples were centrifuged at 10 000×g for 10 min at 4 °C and the supernatant was collected, instantly frozen in liquid nitrogen, and stored at −80 °C. Oligomycin (2.0 μg mL^−1) was used as positive control. ATP levels were quantified using the contents of the kit following the manufacturer's instructions; 90 μL of standard reaction solution was added to each well of a 96‐well plate and the background luminescence was recorded in a FLUOstar OPTIMA fluorimeter; 10 μL of each sample was then added to each well. The plate was incubated at 28 °C for 15 min and the luminescence was measured, including a standard curve with an ATP concentration ranging from 1 nM to 1 μM to allow the calculation of the ATP concentrations in each sample. The ATP content was measured at 0, 0.5, 1, 2, 4, 8 and 12 h of incubation with test sample.

T. brucei GAPDH = T. brucei GAPDH (Trypanosoma brucei brucei, UniProt P22512); assay: Inhibition of T. brucei GAPDH; format: biochemical; details: fixed concentration of 10 μM; data not shown; read-out: decrease of GAPDH activity
Text: […]. […] Limitations of solubility prevented us from testing the series at higher concentrations. However, it must be noted that we cannot exclude the possibility of a low‐affinity inhibition of GAPDH contributing to the trypanocidal effect, as compounds may accumulate to relatively high concentrations within the parasite.

HFF cells = assay: ATP assay on HFF cells; format: cell-based, human; details: 22 at 200 μM, oligomycin 2 μg/mL; 0, 4, 8 h
Experimental: as §1, with “same buffer. […] ATP levels” for “same buffer. The cells were lysed by sonication on ice (twice for 10 s separated by 30 s), using a Soniprep 150 (MSE) at 8 μm amplitude. The samples were centrifuged at 10 000×g for 10 min at 4 °C and the supernatant was collected, instantly frozen in liquid nitrogen, and stored at −80 °C. Oligomycin (2.0 μg mL^−1) was used as positive control. ATP levels”, “test sample. […]” for “test sample.”

T. brucei GAPDH, sequence (P22512 whole entry): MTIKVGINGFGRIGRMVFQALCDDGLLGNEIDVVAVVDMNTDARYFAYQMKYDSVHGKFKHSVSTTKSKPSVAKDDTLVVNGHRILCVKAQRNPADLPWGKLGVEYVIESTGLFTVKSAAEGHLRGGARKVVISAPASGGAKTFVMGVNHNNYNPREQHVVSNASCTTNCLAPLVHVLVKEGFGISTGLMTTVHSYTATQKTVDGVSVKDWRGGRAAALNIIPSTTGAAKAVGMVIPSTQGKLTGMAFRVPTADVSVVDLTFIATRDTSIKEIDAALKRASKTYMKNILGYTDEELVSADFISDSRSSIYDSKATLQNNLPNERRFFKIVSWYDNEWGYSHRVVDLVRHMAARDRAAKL

In the case of `COc1cccc2c1C(=O)C=C(Oc1cccc(CCCCCCCCO)c1)C2=O` [Compound 20, 2‐(3‐(8‐Hydroxyoctyl)phenoxy)‐5‐methoxynaphthalene‐1,4‐dione], the “EC50 in ISMR1 relative to 427WT tested in parallel” value (T. b. brucei ISMR1) was “did not show a significant increase in the EC50 values”, the “ATP content, % of untreated [ATP]” value [1] was “approximately 50%” and the inhibition at 10 µM (T. brucei GAPDH) was less than 15%.

For `O=C1C(Oc2cccc(CCCCCCCCO)c2)=CC(=O)c2c(O)cccc21` [Compound 22, 5‐Hydroxy‐2‐(3‐(8‐hydroxyoctyl)phenoxy)naphthalene‐1,4‐dione], the “effect on cellular ATP levels of HFF cells” value (HFF cells) was “only a very minor effect on cellular ATP levels”, the “EC50 in ISMR1 relative to 427WT tested in parallel” value (T. b. brucei ISMR1) was “did not show a significant increase in the EC50 values” and the “ATP content, % of untreated [ATP]” value [1] was “approximately 50%”. For the same compound, the inhibition at 10 µM (T. brucei GAPDH) was less than 15%.
